# Activity calls are given as the source filed them. No cut-off for these calls is given here.
# Columns and labels:
# [1] = Toxicity in Balb/c mouse allografted with mouse 4T1 cells assessed as decrease in body weight at 20 mg/kg, iv administered every other day measured for 12 days; type: organism-based; conditions: in vivo, 288 h, time 12 day
# [2] = system: 4T1; test: Antitumor activity against mouse 4T1 cells allografted in Balb/c mouse assessed as tumor weight at 5 mg/kg, iv administered every other day measured after 12 days (reference value: 448 mg); type: functional; conditions: time 12 day
# [3] = system: 4T1; test: Antitumor activity against mouse 4T1 cells allografted in Balb/c mouse assessed as tumor weight at 10 mg/kg, iv administered every other day measured after 12 days (reference value: 448 mg); type: functional; conditions: time 12 day
# [4] = system: SGC-7901; test: Induction of cell cycle arrest in human SGC-7901 cells assessed as accumulation at sub-G1 phase at 2 times IC50 incubated for 48 hrs by PI/RNase staining based flow cytometry (reference value: 2 %); type: functional
# [5] = target: T1, Tubulin (Homo sapiens) (UniProt P68371+Q9H4B7+P0DPH7+P68366+Q13509+Q71U36+P04350+Q3ZCM7+P07437+P68363+Q9BQE3+Q6PEY2+Q13885+Q9BVA1+Q9BUF5); test: Disruption of microtubule organization in human SGC-7901 cells assessed as shrinkage of microtubule network around nucleus at 2 times IC50 incubated for 12 hrs by […] based analysis; type: cell-based
# [6] = system: SGC-7901; test: Induction of cell cycle arrest in human SGC-7901 cells assessed as accumulation at S phase at 2 times IC50 incubated for 6 hrs by PI/RNase staining based flow cytometry (reference value: 46 %); type: functional
# [7] = system: 4T1; test: Antitumor activity against mouse 4T1 cells allografted in Balb/c mouse assessed as tumor growth inhibition at 10 mg/kg, iv administered every other day measured for 12 days relative to control; type: functional; conditions: 4T1, 288 h, time 12 day, read-out: TGI
# [8] = system: 4T1; test: Cytotoxicity against mouse 4T1 cells assessed as cell growth inhibition incubated for 72 hrs by MTT assay; type: functional, cell-based; conditions: 4T1, 72 h
# [9] = system: SGC-7901; test: Induction of cell cycle arrest in human SGC-7901 cells assessed as accumulation at G2/M phase at 2 times IC50 incubated for 6 hrs by PI/RNase staining based flow cytometry (reference value: 10 %); type: functional
# [10] = system: 4T1; test: Antitumor activity against mouse 4T1 cells allografted in Balb/c mouse assessed as tumor weight at 20 mg/kg, iv administered every other day measured after 12 days (reference value: 448 mg); type: functional; conditions: time 12 day
# [11] = system: SGC-7901; test: Induction of cell cycle arrest in human SGC-7901 cells assessed as accumulation at G2/M phase at 2 times IC50 incubated for 72 hrs by PI/RNase staining based flow cytometry (reference value: 10 %); type: functional
# [12] = system: SGC-7901; test: Induction of cell cycle arrest in human SGC-7901 cells assessed as accumulation at sub-G1 phase at 2 times IC50 incubated for 24 hrs by PI/RNase staining based flow cytometry (reference value: 2 %); type: functional
# [13] = system: SGC-7901; test: Induction of cell cycle arrest in human SGC-7901 cells assessed as accumulation at G0/G1 phase at 2 times IC50 incubated for 12 hrs by PI/RNase staining based flow cytometry (reference value: 42 %); type: functional
# [14] = system: SGC-7901; test: Induction of cell cycle arrest in human SGC-7901 cells assessed as accumulation at S phase at 2 times IC50 incubated for 48 hrs by PI/RNase staining based flow cytometry (reference value: 46 %); type: functional
# [15] = system: HT-1080; test: Antiproliferative activity against human HT-1080 cells assessed as cell growth inhibition incubated for 72 hrs by MTT assay; type: functional, cell-based; conditions: HT-1080, 72 h
# [16] = system: 4T1; test: Antitumor activity against mouse 4T1 cells allografted in Balb/c mouse assessed as tumor growth inhibition at 20 mg/kg, iv administered every other day measured for 12 days relative to control; type: functional; conditions: 4T1, 288 h, time 12 day, read-out: TGI
# [17] = system: 4T1; test: Antitumor activity against mouse 4T1 cells allografted in Balb/c mouse assessed as tumor growth inhibition at 5 mg/kg, iv administered every other day measured for 12 days relative to control; type: functional; conditions: 4T1, 288 h, time 12 day, read-out: TGI
# [18] = system: SGC-7901; test: Induction of cell cycle arrest in human SGC-7901 cells assessed as accumulation at G2/M phase at 2 times IC50 incubated for 48 hrs by PI/RNase staining based flow cytometry (reference value: 10 %); type: functional
# [19] = system: SGC-7901; test: Induction of cell cycle arrest in human SGC-7901 cells assessed as accumulation at G2/M phase at 2 times IC50 incubated for 24 hrs by PI/RNase staining based flow cytometry (reference value: 10 %); type: functional
# [20] = system: 4T1; test: Antitumor activity against mouse 4T1 cells allografted in Balb/c mouse assessed as decrease in tumor volume at 20 mg/kg, iv administered every other day measured for 12 days; type: functional, organism-based; conditions: time 12.0 day
# [21] = system: SGC-7901; test: Induction of cell cycle arrest in human SGC-7901 cells assessed as accumulation at G0/G1 phase at 2 times IC50 incubated for 6 hrs by PI/RNase staining based flow cytometry (reference value: 42 %); type: functional
# [22] = system: SGC-7901; test: Induction of cell cycle arrest in human SGC-7901 cells assessed as accumulation at S phase at 2 times IC50 incubated for 72 hrs by PI/RNase staining based flow cytometry (reference value: 46 %); type: functional
# [23] = system: SGC-7901; test: Induction of cell cycle arrest in human SGC-7901 cells assessed as accumulation at G2/M phase at 2 times IC50 incubated for 12 hrs by PI/RNase staining based flow cytometry (reference value: 10 %); type: functional
# [24] = system: SGC-7901; test: Induction of cell cycle arrest in human SGC-7901 cells assessed as accumulation at S phase at 2 times IC50 incubated for 12 hrs by PI/RNase staining based flow cytometry (reference value: 46 %); type: functional
# [25] = system: SGC-7901; test: Induction of cell cycle arrest in human SGC-7901 cells assessed as accumulation at sub-G1 phase at 2 times IC50 incubated for 12 hrs by PI/RNase staining based flow cytometry (reference value: 2 %); type: functional
# [26] = system: SGC-7901; test: Induction of cell cycle arrest in human SGC-7901 cells assessed as accumulation at G0/G1 phase at 2 times IC50 incubated for 24 hrs by PI/RNase staining based flow cytometry (reference value: 42 %); type: functional
# [27] = system: SGC-7901; test: Antiproliferative activity against human SGC-7901 cells assessed as cell growth inhibition incubated for 72 hrs by MTT assay; type: functional, cell-based; conditions: SGC-7901, 72 h
# [28] = target: T1, Tubulin (Homo sapiens); test: Binding affinity to tubulin (unknown origin) at colchicine binding site assessed as tubulin-colchicine complex competition rate at 1.25 uM preincubated for 45 mins followed by colchicine addition by fluorescence based assay relative to control; type: protein-complex assay
# [29] = system: SGC-7901; test: Induction of cell cycle arrest in human SGC-7901 cells assessed as accumulation at G0/G1 phase at 2 times IC50 incubated for 48 hrs by PI/RNase staining based flow cytometry (reference value: 42 %); type: functional
# [30] = target: Tubulin; test: (§1) Inhibition of tubulin polymerization (unknown origin) by fluorescence based assay; type: protein-complex assay, Homo sapiens
# [31] = target: T1, Tubulin (Homo sapiens); test: as §1; type: protein-complex assay
# [32] = system: SGC-7901; test: Induction of cell cycle arrest in human SGC-7901 cells assessed as accumulation at S phase at 2 times IC50 incubated for 24 hrs by PI/RNase staining based flow cytometry (reference value: 46 %); type: functional
# [33] = system: SGC-7901; test: Induction of cell cycle arrest in human SGC-7901 cells assessed as accumulation at sub-G1 phase at 2 times IC50 incubated for 72 hrs by PI/RNase staining based flow cytometry (reference value: 2 %); type: functional
# [34] = Cytotoxicity against HUVEC cells assessed as cell growth inhibition incubated for 72 hrs by MTT assay; type: toxicity, cell-based; conditions: human
# [35] = system: SGC-7901; test: Induction of cell cycle arrest in human SGC-7901 cells assessed as accumulation at sub-G1 phase at 2 times IC50 incubated for 6 hrs by PI/RNase staining based flow cytometry (reference value: 2 %); type: functional
# [36] = system: MCF7; test: Antiproliferative activity against human MCF7 cells assessed as cell growth inhibition incubated for 72 hrs by MTT assay; type: functional, cell-based; conditions: MCF7, 72 h
# [37] = Selectivity index, ratio of IC50 for HUVEC cells to IC50 for human SGC-7901 cells; type: functional
smiles,measurement,setting,value
COc1cc(-c2nc3scc(-c4cc(Cl)cc(Cl)c4)n3n2)cc(OC)c1OC,Activity,[1],Non-Toxic
same,Activity,[2],227.5 mg
same,Activity,[3],187.74 mg
same,Activity,[4],69%
same,Activity,[5],Active
same,Activity,[6],49%
same,inhibition in vivo at 10 mg/kg,[7],58.1%
same,IC50,[8],341 nM
same,Activity,[9],13%
same,Activity,[10],71.76 mg
same,Activity,[11],4%
same,Activity,[12],21%
same,Activity,[13],21%
same,Activity,[14],8%
same,IC50,[15],1180 nM
same,inhibition in vivo at 20 mg/kg,[16],84%
same,inhibition in vivo at 5 mg/kg,[17],49.2%
same,Activity,[18],19%
same,Activity,[19],42%
same,Activity,[20],Active
same,Activity,[21],36%
same,Activity,[22],3%
same,Activity,[23],31%
same,Activity,[24],31%
same,Activity,[25],17%
same,Activity,[26],16%
same,IC50,[27],210 nM
same,Activity,[28],37.9%
same,Activity,[29],4%
same,IC50,[30],6870 nM
same,inhibition,[31],Dose-Dependent Effect
same,Activity,[32],21%
same,Activity,[33],93%
same,IC50 at 72 h,[34],13200 nM
same,Activity,[35],2%
same,IC50,[36],2130 nM
same,Ratio IC50,[37],62.62

# Reference: ChEMBL document CHEMBL5370543, “Discovery of 6-aryl-2-(3,4,5-trimethoxyphenyl)thiazole[3,2-b][1,2,4]triazoles as potent tubulin polymerization inhibitors” (Eur J Med Chem, 2023)
